Assay results: US6906061B2, “Pharmaceutical agent containing Rho kinase inhibitor” (Mitsubishi Pharma Corporation, priority 1996, dated 2005)
Counter-ions that a name gives are not always drawn.

Assays:
[1] = test system: Human SK-Mel-28 melanoma; test: Inhibition of cell growth of SK-Mel-28 melanoma; format: cell-based; conditions: 72 hours, MTT
Procedure: Inhibition of Cell Growth of SK-Mel-28 Melanoma
Human SK-Mel-28 melanoma (10^4 cells) and the test compound were suspended in RPMI1640 medium containing 100 μl of 10% FBS and incubated in a 96 well plate at 37° C. under 5% CO2 gas for 72 hours. After the incubation, 10 μl of MTT (5 mg/ml) was added to each well and the cells were incubated at 37° C. under 5% CO2 gas for 4 hours. Then, 10% sodium dodecyl sulfate and 0.01 N hydrochloric acid solution were each added by 10 μl to respective wells. After the plate was stood overnight, absorbance at 570 nm was measured using a microplate reader and the inhibition percentage (% cytotoxicity) was calculated by the following formula.
The cytotoxicity against human cultured tumor cells was confirmed by pigment method (Carmichael et al., Cancer Res., 47, 936-942, 1987: Mosman, J. Immunol. Methods, 65, 55-63, 1983) using 3-(4,5-dimethylthiazol-2-yl)-2,5-diphenyltetrazolium bromide (MTT).
The test compound was dissolved in dimethyl sulfoxide and diluted with RPMI 1640 medium before use. The final dimethyl sulfoxide concentration was adjusted to not more than 0.25%.

[2] = test system: mouse femoral bone; test: Inhibition of bone resorption (in vitro), mouse femoral bone; conditions: 144 h, 6 days incubation of ICR mouse femoral bone
Procedure: Inhibition of Bone Resorption (in vitro)
The determination of the in vitro inhibition of bone resorption using mouse femoral bone followed the method below.
The femoral bone of 3-6 week old male ICR mice was aseptically removed, and bone marrow cavity was washed with F12 medium, containing 10% heat inactivated fetal bovine serum, penicillin G calcium (100 units/ml), kanamycin sulfate (60 μg) and 0.15% sodium hydrogencarbonate (hereinafter the medium is to be referred to as culture solution). After washing the bone marrow cavity and then removing the soft tissue adhered to the bone, the bone was subjected to incubation. The test compound was once dissolved in dimethyl sulfoxide (DMSO) to give a 10 mg/ml solution, which was diluted 1000-fold with the culture solution to give a 10 μg/ml solution. The test compounds were respectively added to the concentration shown in Table 7 and, using this culture solution (1.2 ml), the ICR mouse femoral bone was incubated in a 24 well plate for 6 days under the conditions of 5% CO2 gas, 95% air. After the completion of the incubation, the culture supernatant was recovered, and the amount of calcium suspending in the culture supernatant was quantitatively determined by the chelate method using o-cresolphthalein. The bone resorption inhibitory action of the test compound was calculated by the following formula using the incubation of the femoral bone without addition of the test compound as a control. [formula] This experiment was done with 4 cases in each group. As the control, the same amount of DMSO alone as in the case with the addition of the test compound was used.

[3] = test system: smooth muscle cell (SMC) from rat aorta; test: Inhibition of growth of vascular smooth muscle cell; format: cell-based; conditions: 48 hours, MTT
Procedure: Inhibition of Growth of Vascular Smooth Muscle Cell
The separation from the artery of rat and culture of smooth muscle cell (SMC) followed the explant method of Ross (Ross, R. and Glomset, J. A., N. Engl. J. Med., 295, 369-420, 1976). Male wistar rats (10 week old) was slaughtered by cutting the carotid arteries and aorta of thorax was removed. After removal of fat tissues around the tunica externa and peeling of tunica intima, the artery was minced and incubated in 10% fetal bovine serum (FBS)-containing DMEM medium at 37° C. under 5% CO2 gas. Seven days later, the out-grown cells were separated by trypsin treatment, washed with phosphate-buffered saline (PBS) and incubated in 10% FBS-containing DMEM medium in a 80 cm^2 culture flask. The cells of subculture 2 were suspended in 10% FBS-containing DMEM medium at 5×10^4 cells/ml and 100 μl thereof per well was added to 96 well collagen-coated plate, which was incubated at 37° C. under 5% CO2 gas for one day. The test compound was appropriately diluted with dimethyl sulfoxide (DMSO) and added to the 96 well plate. The concentration of DMSO in the medium was adjusted to 1%. After 48 hours, 10 μl of MTT solution (5 mg/ml) was added and, 4 hours later, 10% sodium dodecyl sulfate-0.01 N hydrochloric acid (50 μl) was added. The absorbance at 570 nm was measured the following day by an immunoreader. The SMC growth inhibitory action of the test compound was shown by inhibition percentage calculated by the following formula The results are shown in Table 10.

[4] = test system: hind limb skin blood flow; test: Peripheral blood flow increasing action in STZ-induced diabetic rats; format: in vivo, rat; conditions: intravenous, 1 μg
Procedure: Peripheral Blood Flow Increasing Action
Streptozotocin (STZ, 65 mg/kg) was intravenously injected to male SD rats (body weight 200-300 g) to prepare diabetic rats. One month later, STZ-induced diabetic rats were anesthetized with pentobarbital sodium and the blood flow in the hind limb skin was measured with laser blood flowmeter (ALF21R, Advance). The test compound was intravenously administered via catheter dwelled in the carotid arteries, and hind limb skin blood flow increasing action was observed. The blood flow increasing action of the test compound was expressed by increase percentage from the blood flow before administration.

[5] = test system: thoractic aorta ring contracted with phenylephrine; test: Vasodilating action on phenylephrine-contracted thoracic aorta rings; conditions: rabbit aortic ring, phenylephrine 10^−6 M contraction; concentration for 50% relaxation; read-out: Vasorelaxing action
Procedure: Male rabbits (body weight 1.9-3.0 kg) were anesthetized with pentobarbital sodium and exsanguinated, whereafter thoractic aorta was removed. An about 2 mm width aortic ring samples were prepared and hung in a Magnus bath (40 ml) filled with Krebs-Henseleit solution (37° C., NaCl 117 mM; KCl 4.7 mM; CaCl2 2.5 mM; MgSO4 1.2 mM; NaHCO3 24.8 mM; KH2PO4 1.2 mM; glucose 11.0 mM) at a load of 2 g. The Magnus bath was constantly bubbled with a mixed gas (95% O2+5% CO2 gas). The tension of the preparation was measured with an isomeric transducer (TB-611T, Nippon Koden). The preparation was contracted with phenylephrine (10^−6 M) and, after the contraction was stabilized, the test compound was added accumulatively and relaxing action was observed.

[6] = test system: trachea specimen contracted with acetylcholine; test: Effect on contraction by acetylcholine of trachea specimen removed from guinea pig; conditions: acetylcholine 10^−6 M contraction, 50% relaxation vs papaverine 10^−4 M maximum, read-out: Trachea relaxing action
Procedure: Male Hartley guinea pigs (body weight 260-390 g) were anesthetized by the peritoneal administration of pentobarbital sodium (100 mg/kg) and exsanguinated, whereafter trachea was removed. The anterior cartilage of the trachea was opened and the band was cut in a 3 mm width strip to give a specimen. The specimen was hung in a Magnus bath (40 ml) filled with Krebs-Henseleit solution (NaCl 117 mM; KCl 4.7 mM; CaCl2 2.5 mM; MgSO4 1.2 mM; NaHCO3 24.8 mM; KH2PO4 1.2 mM; glucose 11.0 mM) at a load of 1 g. The Magnus bath was constantly bubbled with a mixed gas (95% O2+5% CO2 gas). The tension of the strip was measured with an isomeric transducer (TB-611T, Nippon Koden) and depicted on a recorder (Ti-102, Tokai Irika).

[7] = test system: BALB/c spleen cells stimulated with C57BL/6 spleen cells; test: Inhibition of mouse allogenic mixed lymphocyte reaction; format: cell-based; conditions: Mus musculus, Lymphocyte, 96 h; 4 days culture, MTT; read-out: Mouse allogenic MLR inhibitory activity IC50
Procedure: Inhibition of Mouse Allogenic Mixed Lymphocyte Reaction
A mouse allogenic mixed lymphocyte reaction (hereinafter to be referred to as mouse allogenic MLR) was performed by mixed culture (equal ratio) of the spleen cell of BALB/c mice as the reaction cell and the spleen cell of C57BL/6 mice treated with mitomycin C as stimulated cell.
The reaction cells were prepared by the following method. Spleen was removed from 5-6 week old BALB/c mice and treated with RPMI1640 medium (containing kanamycin sulfate (60 μg/ml), penicillin G potassium (100 units/ml), N-2-hydroxyethylpiperazine-N′-2-ethanesulfonate (10 mM), 0.1% sodium hydrogencarbonate and L-glutamin (2 mM)) supplemented with 5% heat inactivated fetal bovine serum (FBS) to give a single cell suspension of the spleen cell. After hemolysis treatment, the suspension was adjusted to10^7 cells/ml with RPMI1640 medium containing 10^−4 M 2-mercaptoethanol and 10% FBS and used as a reaction cell suspension.
The reaction cell suspension (50 μl) prepared by the above method, stimulated cell suspension (50 μl) and the test compound (100 μl) prepared using RPMI1640 medium containing 10% FBS were added to a 96 well plate and incubated at 37° C. under 5% CO2 gas, 95% air for 4 days.
A pigment assay using 3-(4,5-dimethylthiazol-2-yl)-2,5-diphenyltetrazolium bromide (MTT) was applied for the determination of lymphocyte transformation reaction.
After the completion of culture, the supernatant (100 μl) in each well was removed, and 5 mg/ml MTT solution (20 μl) was added to each well, which was followed by incubation at 37° C. for 4 hours. Then, a 0.01 N hydrochloric acid solution (100 μl) containing 10% sodium dodecyl sulfate was added and the mixture was incubated at 37° C. overnight. The resulting purple crystals of formazan was dissolved and absorbance at 550 nm was measured using a microplate absorption meter, which was used as the index of lymphocyte transformation reaction of the mouse allogenic MLR. The inhibition of mouse allogenic MLR was evaluated by calculating the inhibition percentage by the following formula The results are shown in Table 7.

[8] = biological target: T1, Human Platelet Rho Kinase (p160ROCK) (Homo sapiens, UniProt Q13464); test: Rho kinase inhibitory action (inhibition of human platelet Rho kinase (p160ROCK)); format: biochemical; conditions: histone substrate, 1 μM ATP
T1 construct: Human platelet p160ROCK was isolated by the method of Ishizaki et al; from tissue; host or cells: human platelets
T1 sequence (Q13464 whole entry): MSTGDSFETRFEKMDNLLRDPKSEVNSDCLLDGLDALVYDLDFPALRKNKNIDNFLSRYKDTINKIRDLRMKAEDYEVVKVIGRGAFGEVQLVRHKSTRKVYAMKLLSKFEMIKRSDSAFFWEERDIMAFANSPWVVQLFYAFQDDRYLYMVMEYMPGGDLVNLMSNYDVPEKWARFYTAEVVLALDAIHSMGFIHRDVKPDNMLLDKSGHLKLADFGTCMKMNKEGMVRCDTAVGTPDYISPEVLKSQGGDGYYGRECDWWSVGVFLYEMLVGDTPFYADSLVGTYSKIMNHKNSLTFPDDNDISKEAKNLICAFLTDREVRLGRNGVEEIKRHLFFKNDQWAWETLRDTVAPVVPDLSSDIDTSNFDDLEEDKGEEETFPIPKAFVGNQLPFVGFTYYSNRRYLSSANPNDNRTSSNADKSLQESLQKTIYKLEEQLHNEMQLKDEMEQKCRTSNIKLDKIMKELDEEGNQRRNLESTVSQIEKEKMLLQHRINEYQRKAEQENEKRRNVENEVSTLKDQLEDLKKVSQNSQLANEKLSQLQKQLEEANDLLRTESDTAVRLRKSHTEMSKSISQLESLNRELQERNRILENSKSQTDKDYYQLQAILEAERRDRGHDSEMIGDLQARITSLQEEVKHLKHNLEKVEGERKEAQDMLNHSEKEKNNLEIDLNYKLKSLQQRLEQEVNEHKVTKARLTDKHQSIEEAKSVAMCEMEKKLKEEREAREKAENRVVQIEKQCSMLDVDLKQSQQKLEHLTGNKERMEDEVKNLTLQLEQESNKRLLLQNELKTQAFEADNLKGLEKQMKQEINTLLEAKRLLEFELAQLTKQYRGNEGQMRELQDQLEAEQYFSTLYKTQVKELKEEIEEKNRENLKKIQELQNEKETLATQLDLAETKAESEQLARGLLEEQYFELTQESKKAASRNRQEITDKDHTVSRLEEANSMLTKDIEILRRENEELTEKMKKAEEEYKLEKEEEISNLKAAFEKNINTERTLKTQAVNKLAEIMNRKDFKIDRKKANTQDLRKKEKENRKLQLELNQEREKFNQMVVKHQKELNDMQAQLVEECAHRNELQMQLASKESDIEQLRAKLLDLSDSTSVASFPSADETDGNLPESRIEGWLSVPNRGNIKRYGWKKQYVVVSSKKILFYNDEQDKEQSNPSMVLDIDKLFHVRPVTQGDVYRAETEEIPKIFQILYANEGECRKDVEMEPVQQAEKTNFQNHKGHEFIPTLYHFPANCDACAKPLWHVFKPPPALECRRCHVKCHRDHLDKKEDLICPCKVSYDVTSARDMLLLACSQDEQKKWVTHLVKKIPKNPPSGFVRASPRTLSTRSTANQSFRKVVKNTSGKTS
Procedure: Rho Kinase Inhibitory Action (Inhibition of Human Platelet Rho Kinase (p160ROCK))
Kinase assay included the following steps. That is, a reaction mixture (total amount 30 μl) containing 50 mM Hepes-NaOH (pH=7.4), 10 mM MgCl2, 5 mM MnCl2, 2 mM dithiothreitol, 0.02% Brij35, 1 μM [γ-^32P]ATP, 330 μg/ml histone, p160ROCK (2 μl) isolated by the method of Ishizaki et al. and the test compound was incubated at 30° C. for 20 minutes. The solution was mixed with a 1/3 amount of 4× Laemmli sample buffer, boiled for 5 minutes and applied to SDS-PAGE. The gel was stained with Coomassie Brilliant Blue and dried. The band of histone was cut out and assayed for radioactivity.

Row | Compound | IC50 [1] | IC50 [3] | further results
1 | NC[C@H]1CC[C@H](C(=O)Nc2ncnc3[nH]ncc23)CC1 [Compound 115.2HBr.1/4H2O, trans-N-(1H-pyrazolo[3,4-d]pyrimidin-4-yl)-4-aminomethylcyclohexanecarboxamide] | 9 µM | – | –
2 | N=C(N)NC[C@H]1CC[C@H](C(=O)Nc2ccnc3[nH]ccc23)CC1 [Compound 142.2HCl.H2O, trans-N-(1H-pyrrolo[2,3-b]pyridin-4-yl)-4-guanidinomethylcyclohexanecarboxamide] | 59 µM | – | inhibition at 100 µM [2]: 44.2%
3 | Cn1ccc2c(NC(=O)[C@H]3CC[C@H](CNC(=N)N)CC3)ccnc21 [Compound 145.2HCl.H2O, trans-N-(1-methylpyrrolo[2,3-b]pyridin-4-yl)-4-(guanidinomethyl)cyclohexanecarboxamide] | 62 µM | – | –
4 | C[C@@H](N)c1ccc(C(=O)Nc2ccncc2)cc1 [Compound 157.HCl.H2O, (R)-(+)-N-(4-pyridyl)-4-(1-aminoethyl)benzamide] | – | 55 µM | Increase in skin blood flow ± standard error (%) [4]: 211.6 ± 13.6%
5 | C[C@@H](N)c1ccc(C(=O)Nc2ccnc3[nH]ccc23)cc1N=[N+]=[N-] [Compound 179.2HBr.1/2H2O, (R)-(−)-N-(1H-pyrrolo[2,3-b]pyridin-4-yl)-4-(1-aminoethyl)-3-azidebenzamide] | – | – | IC50 [5]: 0.03 µM; IC50 [6]: 0.029 µM
6 | CC1CNCCN1S(=O)(=O)c1cccc2cnccc12 (stereo not drawn) [Compound 308.2HCl, 1-(5-isoquinolinesulfonyl)-2-methylpiperazine] | – | – | IC50 [7]: 13.9 µM; IC50 [8]: 5 µM
7 | CCCCCCCCNC(=N)NC[C@H]1CC[C@H](C(=O)Nc2ccnc3[nH]ccc23)CC1 [compound 153.2HCl, trans-N-(1H-pyrrolo[2,3-b]pyridin-4-yl)-4-(3-octylguanidinomethyl)cyclohexanecarboxamide] | – | 27 µM | –
8 | C[C@@H](N)c1ccc(C(=O)Nc2ccncc2)cc1Cl [compound 163.2HBr, (R)-(+)-N-(4-pyridyl)-4-(1-aminoethyl)-3-chlorobenzamide] | – | 63 µM | –
